In US20240066136A1, “MODIFIED PROTEINS AND PROTEIN DEGRADERS” (Cullgen (Shanghai), Inc., priority 2020, published 2024):

These molecules were tested against Human DDB1 (Homo sapiens (Human), UniProt Q16531) (assay: Surface plasmon resonance (SPR) binding assay to immobilized His-DDB1). Conditions: SPR, DDB1 binding moieties with linkers and/or target protein binding moiety; read-out: Binding (Kd).
Human DDB1, sequence (Q16531 whole entry): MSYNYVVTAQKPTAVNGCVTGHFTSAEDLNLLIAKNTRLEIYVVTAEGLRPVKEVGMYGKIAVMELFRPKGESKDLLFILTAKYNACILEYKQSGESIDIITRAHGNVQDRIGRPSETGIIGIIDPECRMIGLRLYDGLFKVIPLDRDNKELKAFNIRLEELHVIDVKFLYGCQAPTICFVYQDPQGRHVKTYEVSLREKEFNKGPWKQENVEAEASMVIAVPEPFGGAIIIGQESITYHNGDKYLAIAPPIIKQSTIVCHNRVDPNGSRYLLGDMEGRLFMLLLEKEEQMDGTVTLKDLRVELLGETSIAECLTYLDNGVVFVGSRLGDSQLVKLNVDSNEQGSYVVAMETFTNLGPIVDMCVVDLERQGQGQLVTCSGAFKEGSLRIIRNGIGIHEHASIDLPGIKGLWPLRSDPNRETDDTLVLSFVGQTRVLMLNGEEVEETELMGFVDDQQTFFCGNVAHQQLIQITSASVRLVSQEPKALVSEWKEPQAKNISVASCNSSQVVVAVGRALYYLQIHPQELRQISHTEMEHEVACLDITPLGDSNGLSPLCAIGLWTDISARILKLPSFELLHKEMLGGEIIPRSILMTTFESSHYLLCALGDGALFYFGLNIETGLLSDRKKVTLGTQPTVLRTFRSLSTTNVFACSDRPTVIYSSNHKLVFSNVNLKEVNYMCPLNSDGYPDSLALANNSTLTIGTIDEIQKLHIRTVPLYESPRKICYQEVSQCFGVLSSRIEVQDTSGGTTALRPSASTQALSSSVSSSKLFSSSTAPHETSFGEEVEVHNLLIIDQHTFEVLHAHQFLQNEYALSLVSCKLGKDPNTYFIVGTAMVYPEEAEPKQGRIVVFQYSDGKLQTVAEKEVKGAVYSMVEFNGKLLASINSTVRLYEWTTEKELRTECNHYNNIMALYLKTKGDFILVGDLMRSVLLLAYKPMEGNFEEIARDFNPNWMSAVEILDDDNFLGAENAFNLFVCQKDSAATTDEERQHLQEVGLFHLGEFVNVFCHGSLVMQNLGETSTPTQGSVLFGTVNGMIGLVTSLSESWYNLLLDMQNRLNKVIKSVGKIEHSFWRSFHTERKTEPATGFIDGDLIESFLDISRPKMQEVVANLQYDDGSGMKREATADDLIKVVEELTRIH
Outline: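 Baculovirus-expressed His-DDB1 (High5 cells) amine-coupled to 11,000–13,000 RU on a CM5 chip; compounds injected in multi-cycle format without regeneration at 25° C in HBS-EP pH 7.4 (120 s association/dissociation). Double-referenced, solvent-corrected data fit to steady-state affinity model for KD.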
With `CC(=O)Nc1cc(NCCCCCCCCCCNC(=O)C[C@@H]2N=C(c3ccc(Cl)cc3)c3c(sc(C)c3C)-n3c(C)nnc32)ccc1C(=O)Nc1nc(C)c([N+](=O)[O-])s1` [D-31, (S)-2-Acetamido-4-((10-(2-(4-(4-chlorophenyl)-2,3,9-trimethyl-6H-thieno[3,2-f][1,2,4]triazolo[4,3-a][1,4]diazepin-6-yl)acetamido)decyl)amino)-N-(4-methyl-5-nitrothiazol-2-yl)benzamide] the Kd was 20 to 100 µM. `CC(=O)Nc1cc(NCCOCCOCCOCCOCCOCCOCCNC(=O)C[C@@H]2N=C(c3ccc(Cl)cc3)c3c(sc(C)c3C)-n3c(C)nnc32)ccc1C(=O)Nc1nc(C)c([N+](=O)[O-])s1` [D-37, (S)-2-Acetamido-4-((1-(4-(4-chlorophenyl)-2,3,9-trimethyl-6H-thieno[3,2-f][1,2,4]triazolo[4,3-a][1,4]diazepin-6-yl)-2-oxo-6,9,12,15,18,21-hexaoxa-3-azatricosan-23-yl)amino)-N-(4-methyl-5-nitrothiazol-2-yl)benzamide] showed a Kd of 20 to 100 µM. `CC(=O)Nc1cc(C(=O)NCCOCCOCCOCCN)ccc1C(=O)Nc1nc(C)c([N+](=O)[O-])s1` [BL-5, 2-acetamido-N^4-(2-(2-(2-(2-aminoethoxy)ethoxy)ethoxy)ethyl)-N^1-(4-methyl-5-nitrothiazol-2-yl)terephthalamide] was tested, and the Kd was 20 to 100 µM. Work on `CC(=O)Nc1cc(C(=O)NCCOCCOCCOCCN)ccc1C(=O)Nc1ncc([N+](=O)[O-])s1` [BL-6, 2-acetamido-N^4-(2-(2-(2-(2-aminoethoxy)ethoxy)ethoxy)ethyl)-N^1-(5-nitrothiazol-2-yl)terephthalamide] yielded a Kd of 20 to 100 µM. `CC(=O)Nc1cc(NCCOCCNC(=O)C[C@@H]2N=C(c3ccc(Cl)cc3)c3c(sc(C)c3C)-n3c(C)nnc32)ccc1C(=O)Nc1nc(C)c([N+](=O)[O-])s1` [D-32, (S)-2-Acetamido-4-((2-(2-(2-(4-(4-chlorophenyl)-2,3,9-trimethyl-6H-thieno[3,2-f][1,2,4]triazolo[4,3-a][1,4]diazepin-6-yl)acetamido)ethoxy)ethyl)amino)-N-(4-methyl-5-nitrothiazol-2-yl)benzamide] gave a Kd of 20 to 100 µM. For `CC(=O)Nc1cc(NCCNC(=O)C[C@@H]2N=C(c3ccc(Cl)cc3)c3c(sc(C)c3C)-n3c(C)nnc32)ccc1C(=O)Nc1nc(C)c([N+](=O)[O-])s1` [D-26, (S)-2-Acetamido-4-((2-(2-(4-(4-chlorophenyl)-2,3,9-trimethyl-6H-thieno[3,2-f][1,2,4]triazolo[4,3-a][1,4]diazepin-6-yl)acetamido)ethyl)amino)-N-(4-methyl-5-nitrothiazol-2-yl)benzamide], the Kd was 20 to 100 µM. For `Cc1nc(NC(=O)c2ccccc2NC(=O)CCOCCOCCOCCN)sc1[N+](=O)[O-]` [BL-2, 2-(3-(2-(2-(2-Aminoethoxy)ethoxy)ethoxy)propanamido)-N-(4-methyl-5-nitrothiazol-2-yl)benzamide], the Kd was 20 to 100 µM. `CC(=O)Nc1cc(NCCOCCOCCOCCN)ccc1C(=O)Nc1ncc([N+](=O)[O-])s1` [BL-9, 2-Acetamido-4-((2-(2-(2-(2-aminoethoxy)ethoxy)ethoxy)ethyl)amino)-N-(5-nitrothiazol-2-yl)benzamide] gave a Kd of less than 20 µM.

Same assay, conditions: SPR, steady state affinity model, 25° C.; read-out: Binding (DDB1 binder activities, Kd)
Work on `CN(C)c1ccccc1C(=O)Nc1ncc([N+](=O)[O-])s1` [B-69, 2-(dimethylamino)-N-(5-nitrothiazol-2-yl)benzamide] yielded a Kd greater than 100 µM. In the case of `Cc1cc(Br)ccc1C(=O)Nc1ncc([N+](=O)[O-])s1` [B-152, 4-Bromo-2-methyl-N-(5-nitrothiazol-2-yl)benzamide], the Kd is reported as less than 20 µM. With `Cc1cc(N(C)C)ccc1C(=O)Nc1ncc([N+](=O)[O-])s1` [B-167, 4-(Dimethylamino)-2-methyl-N-(5-nitrothiazol-2-yl)benzamide] the Kd was greater than 100 µM. `O=C(O)CCc1ccccc1C(=O)Nc1ncc([N+](=O)[O-])s1` [B-88, 3-(2-((5-Nitrothiazol-2-yl)carbamoyl)phenyl)propanoic acid] was tested, and the Kd was 20 to 100 µM. For `CCCCNc1ccc(C(=O)Nc2ncc([N+](=O)[O-])s2)c(C)c1` [B-165, 4-(Butylamino)-2-methyl-N-(5-nitrothiazol-2-yl)benzamide], the Kd was 20 to 100 µM. `CC(=O)Nc1ccccc1C(=O)Nc1ncccn1` [B-56, 2-acetamido-N-(pyrimidin-2-yl)benzamide] showed a Kd greater than 100 µM. Molecule `O=C(Nc1ncc([N+](=O)[O-])s1)c1ccccc1OC1CC1` [B-75, 2-Cyclopropoxy-N-(5-nitrothiazol-2-yl)benzamide] has a Kd greater than 100 µM. `CCOc1cccc(C)c1C(=O)Nc1ncc([N+](=O)[O-])s1` [B-159, 2-Ethoxy-6-methyl-N-(5-nitrothiazol-2-yl)benzamide] gave a Kd greater than 100 µM. With `CC(C)Cc1ccccc1C(=O)N(C)c1ncc([N+](=O)[O-])s1` [B-106, 2-Isobutyl-N-methyl-N-(5-nitrothiazol-2-yl)benzamide] the Kd was less than 20 µM. Molecule `CNC(=O)CCCNC(=O)c1nnn2c1CN(C(=O)OCCCCCC(C)C)CC2` [B-144, 6-methylheptyl3-((4-(methylamino)-4-oxobutyl)carbamoyl)-6,7-dihydro-[1,2,3]triazolo[1,5-a]pyrazine-5(4H)-carboxylate] has a Kd of 20 to 100 µM. For `O=C(Nc1ncc([N+](=O)[O-])s1)c1ccccc1OC(F)(F)F` [B-77, N-(5-nitrothiazol-2-yl)-2-(trifluoromethoxy)benzamide], the Kd was greater than 100 µM. With `CCOc1ccccc1C(=O)N(C)c1ncc([N+](=O)[O-])s1` [B-102, 2-Ethoxy-N-methyl-N-(5-nitrothiazol-2-yl)benzamide] the Kd was less than 20 µM. In the case of `Nc1nc(N2CCOCC2)nc2c1CCN(Cc1cccc3cccnc13)C2` [B-136, 2-morpholino-7-(quinolin-8-ylmethyl)-5,6,7,8-tetrahydropyrido[3,4-d]pyrimidin-4-amine], the Kd is reported as 20 to 100 µM. Molecule `CC(=O)Nc1ccccc1C(=O)Nc1cccnc1` [B-122, 2-Acetamido-N-(pyridin-3-yl)benzamide] has a Kd greater than 100 µM. Molecule `CCCCNc1ccc(C(=O)Nc2ncc(-c3ccccc3)s2)c(-c2ccccc2)c1` [B-120, 5-(Butylamino)-N-(5-phenylthiazol-2-yl)-[1,1′-biphenyl]-2-carboxamide] has a Kd of 20 to 100 µM. For `CC(C)C(=O)Nc1ccccc1C(=O)Nc1ncc([N+](=O)[O-])s1` [B-61, 2-Isobutyramido-N-(5-nitrothiazol-2-yl)benzamide], the Kd was 20 to 100 µM. For `CCCCNc1ccc(C(=O)Nc2ncc([N+](=O)[O-])s2)c(OC(C)=O)c1` [B-17, 5-(Butylamino)-2-((5-nitrothiazol-2-yl)carbamoyl)phenyl acetate], the Kd was less than 20 µM. With `CCCc1ccccc1C(=O)N(C)c1ncc([N+](=O)[O-])s1` [B-104, N-Methyl-N-(5-nitrothiazol-2-yl)-2-propylbenzamide] the Kd was 20 to 100 µM. Work on `CCCCNc1ccc(C(=O)Nc2ncc([N+](=O)[O-])s2)c(C(C)C)c1` [B-109, 4-(Butylamino)-2-isopropyl-N-(5-nitrothiazol-2-yl)benzamide] yielded a Kd of 20 to 100 µM. In the case of `CC(=O)Nc1ccccc1C(=O)Nc1ncc(Br)s1` [B-37, 2-Acetamido-N-(5-bromothiazol-2-yl)benzamide], the Kd is reported as greater than 100 µM. Work on `CC(=O)N(C)c1ccccc1C(=O)Nc1ncc([N+](=O)[O-])s1` [B-64, 2-(N-Methylacetamido)-N-(5-nitrothiazol-2-yl)benzamide] yielded a Kd of 20 to 100 µM. Molecule `CCCCNc1ccc(C)c(C(=O)Nc2ncc([N+](=O)[O-])s2)c1` [B-148, 5-(Butylamino)-2-methyl-N-(5-nitrothiazol-2-yl)benzamide] has a Kd of 20 to 100 µM. Molecule `CC(=O)Nc1ccccc1C(=O)Nc1nc(C(C)C)c([N+](=O)[O-])s1` [B-33, 2-Acetamido-N-(4-isopropyl-5-nitrothiazol-2-yl)benzamide] has a Kd of less than 20 µM. In the case of `CCCCNc1ccc(C(=O)Nc2nc(C(F)(F)F)c([N+](=O)[O-])s2)c(-c2ccccc2)c1` [B-114, 5-(Butylamino)-N-(5-nitro-4-(trifluoromethyl)thiazol-2-yl)-[1,1′-biphenyl]-2-carboxamide], the Kd is reported as less than 20 µM. With `CCCCNc1cccc(OC(C)=O)c1C(=O)Nc1ncc([N+](=O)[O-])s1` [B-19, 3-(Butylamino)-2-((5-nitrothiazol-2-yl)carbamoyl)phenyl acetate] the Kd was 20 to 100 µM. In the case of `Cc1cc(C#N)ccc1C(=O)Nc1ncc([N+](=O)[O-])s1` [B-151, 4-Cyano-2-methyl-N-(5-nitrothiazol-2-yl)benzamide], the Kd is reported as greater than 100 µM. Molecule `CC(C)C(=O)NCCC1CN(Cc2cccc3[nH]ccc23)Cc2ccnn21` (stereo not shown) [B-142, N-(2-(5-((1H-indol-4-yl)methyl)-4,5,6,7-tetrahydropyrazolo[1,5-a]pyrazin-7-yl)ethyl)isobutyramide] has a Kd of 20 to 100 µM. `Cc1cc(C(C)C)ccc1C(=O)Nc1ncc([N+](=O)[O-])s1` [B-164, 4-Isopropyl-2-methyl-N-(5-nitrothiazol-2-yl)benzamide] gave a Kd greater than 100 µM. `CCCCNc1ccc(OC(C)=O)c(C(=O)Nc2ncc([N+](=O)[O-])s2)c1` [B-18, 4-(butylamino)-2-((5-nitrothiazol-2-yl)carbamoyl)phenylacetate] gave a Kd of 20 to 100 µM. `CNc1ccc(C(=O)Nc2ncc([N+](=O)[O-])s2)c(C)c1` [B-166, 2-Methyl-4-(methylamino)-N-(5-nitrothiazol-2-yl)benzamide] showed a Kd of 20 to 100 µM. `O=C(Nc1ncc([N+](=O)[O-])s1)c1ccccc1NC1CC1` [B-71, 2-(cyclopropylamino)-N-(5-nitrothiazol-2-yl)benzamide] was tested, and the Kd was 20 to 100 µM. With `CCCNC(=O)c1cccc(C(=O)Nc2ncc([N+](=O)[O-])s2)c1O` [B-15, 2-hydroxy-N^1-(5-nitrothiazol-2-yl)-N^3-propylisophthalamide] the Kd was 20 to 100 µM. Molecule `CCCNC(=O)c1cccc(C(=O)Nc2ncc([N+](=O)[O-])s2)c1NC(C)=O` [B-145, 2-Acetamido-N^1-(5-nitrothiazol-2-yl)-N^3-propylisophthalamide] has a Kd of 20 to 100 µM. Molecule `CC(=O)Nc1ccccc1C(=O)Nc1ncc(Cl)s1` [B-35, 2-Acetamido-N-(5-chlorothiazol-2-yl)benzamide] has a Kd of 20 to 100 µM. Work on `CCNc1ccccc1C(=O)Nc1ncc([N+](=O)[O-])s1` [B-6] yielded a Kd of less than 20 µM.
